“And” between values parts separate entries of the source, which are not always exact repeats. Equal entries are not always repeated. Where two headings read alike, the source gives them in different places.

The target of assay [1] is T1, Pcs60 (Saccharomyces cerevisiae, UniProt P38137). It is filed as binding, S. cerevisiae.
In assay [2] the target is T1, Pcs60. In words: Differential scanning calorimetry (DSC) of Pcs60 with γS-ATP. The class given is binding, S. cerevisiae. The note with it: Pcs60 180 µM, γS-ATP 192 µM. How it is done: 2Differential scanning calorimetry of Pcs60
Figure S24. Differential scanning calorimetry (DSC) of Pcs60 (180 µM) in absence and presence of its ligand γS-ATP (192 µM). Here the raw data is shown before baseline correction. […] The […]
temperature of the ﬁrst transition is shifted by ligand binding from 41.5 to 43.4◦C. […]
affected upon ligand binding. Since the two transitions overlap, it was not possible to extract a reliable value of the heat capacity change upon unfolding ∆Cp.
(also on this page, place not known: 2 30 40 50 60 70 Temperature / C 11 10 9 8 7 6 DP / mJ/min PCS60 PCS60 + S-ATP Differential)
(1 picture or pasted object on this page, not shown here)

A further assay has as its target wild-type Pcs60 (Saccharomyces cerevisiae, UniProt P38137). In words: biochemical. It is filed as binding, S. cerevisiae. The method, then:
(§1) The following protocol was used for all nDSF experiments with Pcs60 and the nucleotide ligand γS-ATP. 14 dilutions of the nucleotide ligand (γS-ATP) starting at 5 mM at a constant Pcs60 concentration of 9.9 μM were prepared in buffer (50 mM HEPES pH 7.5, 150 mM NaCl, 0.5 mM TCEP). […] In addition to the ligand dilutions, a pure Pcs60 sample in the same buffer was used. If not stated otherwise, the measurements were run as triplicates (in total 45 temperature curves). The LED laser power for the experiments was between 70 and 80%.
Figure S29. (A) nDSF binding study for wild-type Pcs60 WT/γS-ATP. The region in the colored box was used for isothermal
analysis. […] (C) Isothermal analysis for […]

Assay [3] has as its target T1, Pcs60. It is filed as binding, S. cerevisiae. To be noted: read-out: Kd (MST); Tref 21 °C; 1:1 model. The method, then:
MST curves for Pcs60/ γ S-ATP were acquired with a Nanotemper Monolith NT.LabelFree (Nanotemper) using the MO.Control v1.6 acquisition software and Monolith NT.LabelFree capillaries. The same protein concentration and buffer conditions as for the nDSF experiments were used (9.9 μM). 16 different ligand concentrations (serial dilution with a factor of 2) in the range between 5 mM and 0.15 μM were used for each measurement. For the MST experiment the IR laser power was set to 20% and the UV laser power to 1%. In total, two independent measurements were done plus an additional repeat. The data was exported as xlsx and analyzed and plotted with a self-written Python script. The regions for Fnorm determination were − 1–0 s for “cold” and 19–20 s for “hot”. For each curve Fnorm was calculated as the ratio between the mean values in the “hot” and “cold” region. In the final step, Fnorm was fitted to a 1:1 binding model. The self-written Python scripts for spectral analysis including MST analysis are available online: https://github.com/steniegit/libspec

The target in another assay is Pcs60 K523A mutant (Saccharomyces cerevisiae, UniProt P38137, K523A). The experiment in a line: biochemical. The class given is binding, S. cerevisiae. The method, then:
as §1

In a further assay the target is SS1 (Danio rerio, UniProt A0A0R4IMY7). The class given is binding, zebrafish.
SS1, sequence (A0A0R4IMY7 32-415): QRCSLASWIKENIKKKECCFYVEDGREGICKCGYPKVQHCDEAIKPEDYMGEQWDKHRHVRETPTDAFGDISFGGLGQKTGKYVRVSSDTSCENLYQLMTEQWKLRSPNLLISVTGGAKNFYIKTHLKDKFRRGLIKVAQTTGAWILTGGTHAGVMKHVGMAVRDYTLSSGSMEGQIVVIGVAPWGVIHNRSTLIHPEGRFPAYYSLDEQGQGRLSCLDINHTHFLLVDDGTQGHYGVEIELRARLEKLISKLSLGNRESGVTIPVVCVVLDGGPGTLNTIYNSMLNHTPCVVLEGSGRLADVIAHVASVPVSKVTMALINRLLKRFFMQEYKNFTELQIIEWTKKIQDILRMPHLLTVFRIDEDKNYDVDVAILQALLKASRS
The next assay has as its target EG1 (Homo sapiens, UniProt Q9BW91). The class given is binding. To be noted: ADPR 2 mM to 24 nM.

Pcs60 K523A mutant, sequence (P38137 whole entry K523A): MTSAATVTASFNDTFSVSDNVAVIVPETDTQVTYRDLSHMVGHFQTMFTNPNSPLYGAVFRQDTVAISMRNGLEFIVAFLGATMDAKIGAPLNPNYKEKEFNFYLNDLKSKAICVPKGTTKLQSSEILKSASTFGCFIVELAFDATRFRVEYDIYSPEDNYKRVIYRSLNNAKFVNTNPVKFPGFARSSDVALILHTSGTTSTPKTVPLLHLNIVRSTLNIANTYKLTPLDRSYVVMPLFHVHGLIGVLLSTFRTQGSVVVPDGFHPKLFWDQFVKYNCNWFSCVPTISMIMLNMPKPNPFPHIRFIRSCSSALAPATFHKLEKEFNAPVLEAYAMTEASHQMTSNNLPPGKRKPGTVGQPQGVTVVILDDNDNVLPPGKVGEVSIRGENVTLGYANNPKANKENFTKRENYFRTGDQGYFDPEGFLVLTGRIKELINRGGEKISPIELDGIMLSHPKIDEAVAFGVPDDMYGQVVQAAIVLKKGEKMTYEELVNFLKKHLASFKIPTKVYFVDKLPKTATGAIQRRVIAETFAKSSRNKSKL
wild-type Pcs60, sequence (P38137 whole entry): as the sequence (P38137 whole entry K523A) above, with A523K counted along it
T1 sequence (P38137 whole entry): as the sequence (P38137 whole entry K523A) above, with A523K counted along it
EG1, sequence (Q9BW91 59-350): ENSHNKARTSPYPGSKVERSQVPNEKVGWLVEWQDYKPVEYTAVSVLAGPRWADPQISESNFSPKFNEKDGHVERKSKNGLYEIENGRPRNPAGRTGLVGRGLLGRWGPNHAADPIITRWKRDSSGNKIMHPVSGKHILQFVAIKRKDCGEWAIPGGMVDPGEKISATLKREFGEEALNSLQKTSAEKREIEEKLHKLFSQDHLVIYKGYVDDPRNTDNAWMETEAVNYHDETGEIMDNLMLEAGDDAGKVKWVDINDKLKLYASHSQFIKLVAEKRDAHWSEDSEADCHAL

Take `Nc1ncnc2c1ncn2[C@@H]1O[C@H](CO[P@](=O)(O)O[P@](=O)(O)O[P@@](=O)(O)S)[C@@H](O)[C@H]1O` [γS-ATP]: the Kd amounted to 14.9 µM on Pcs60 [1] (T=36 °C, fitted ∆Cp = 6.7 kcal/molK, read-out: Kd (isothermal analysis, fitted ∆Cp)); 15.4 µM at Pcs60 [1] (T=38 °C, fitted ∆Cp = 6.7 kcal/molK, read-out: Kd (isothermal analysis, fitted ∆Cp)); 17.1 µM at Pcs60 [1] (T=40 °C, fitted ∆Cp = 6.7 kcal/molK, read-out: Kd (isothermal analysis, fitted ∆Cp)); 21.9 µM on Pcs60 [1] (T=42 °C, fitted ∆Cp = 6.7 kcal/molK, read-out: Kd (isothermal analysis, fitted ∆Cp)); 32.4 µM on Pcs60 [1] (T=44 °C, fitted ∆Cp = 6.7 kcal/molK, read-out: Kd (isothermal analysis, fitted ∆Cp)); 41.1 µM on Pcs60 [1] (T=46 °C, fitted ∆Cp = 6.7 kcal/molK, read-out: Kd (isothermal analysis, fitted ∆Cp)). In addition, the Kd at Pcs60 [1] (T=48 °C, fitted ∆Cp = 6.7 kcal/molK, read-out: Kd (isothermal analysis, fitted ∆Cp)) was found to be 27.8 µM; at Pcs60 [1] (Tiso 40 °C, ∆Cp = 0, read-out: Kd (isothermal analysis of nDSF)) it was 18.4 µM; at Pcs60 [1] (heating rate 1 °C/min, ∆Cp default 0 kcal/mol, Tsel 40 °C, read-out: Kd,Tsel) it was 18 µM; on Pcs60 [1] (heating rate 1 °C/min, ∆Cp fitted 6.7 kcal/mol, Tsel 38 °C, read-out: Kd,Tsel), 17 µM; at Pcs60 [1] (heating rate 3 °C/min, ∆Cp default 0 kcal/mol, Tsel 39 °C, read-out: Kd,Tsel) it was 16 µM; on Pcs60 [1] (heating rate 3 °C/min, ∆Cp fitted 6.7 kcal/mol, Tsel 39 °C, read-out: Kd,Tsel) it was 19 µM. Further, the Kd turned out to be 23 µM at Pcs60 [1] (heating rate 5 °C/min, ∆Cp default 0 kcal/mol, Tsel 39 °C, read-out: Kd,Tsel); 24 µM on Pcs60 [1] (heating rate 5 °C/min, ∆Cp fitted 6.7 kcal/mol, Tsel 40 °C, read-out: Kd,Tsel); 144 µM at Pcs60 [1] (read-out: Kd,app,model1 (melting temperature analysis), single-site model, Eq. (1), first transition); 10.2 µM at Pcs60 [1] (read-out: Kd,app,model2 (melting temperature analysis), model 2, Eq. (4), first transition); 19.7 µM at wild-type Pcs60 (T=36 °C, ∆Cp = 0, read-out: Kd (isothermal analysis)); 20.2 µM on wild-type Pcs60 (T=38 °C, ∆Cp = 0, read-out: Kd (isothermal analysis)). Further, the Kd on wild-type Pcs60 (T=40 °C, ∆Cp = 0, read-out: Kd (isothermal analysis)) came to 21 µM; on wild-type Pcs60 (T=42 °C, ∆Cp = 0, read-out: Kd (isothermal analysis)) it was 22.5 µM; at wild-type Pcs60 (T=44 °C, ∆Cp = 0, read-out: Kd (isothermal analysis)), 24.9 µM; on wild-type Pcs60 (T=46 °C, ∆Cp = 0, read-out: Kd (isothermal analysis)) it was 28.7 µM; at wild-type Pcs60 (T=48 °C, ∆Cp = 0, read-out: Kd (isothermal analysis)), 39.5 µM; at wild-type Pcs60 (T=50 °C, ∆Cp = 0, read-out: Kd (isothermal analysis)), 78 µM. The Kd is 146 µM on wild-type Pcs60 (T=52 °C, ∆Cp = 0, read-out: Kd (isothermal analysis)); about 20 µM at wild-type Pcs60 (isothermal analysis, read-out: Kd values (summary in legend)); 195 µM at wild-type Pcs60 (read-out: Kd,app Model 1 (melting temperature analysis)); 15.6 µM on wild-type Pcs60 (read-out: Kd,app Model 2 (melting temperature analysis)); 16 µM at Pcs60 [3]; 252 µM and 297 µM and 246 µM and 236 µM and 227 µM and 219 µM and 212 µM and 221 µM at Pcs60 K523A mutant (Kd (isothermal analysis)). In addition, the Kd on Pcs60 K523A mutant (read-out: Kd (isothermal analysis of nDSF)) worked out at 213 µM; on Pcs60 K523A mutant (read-out: Kd, melting temperature analysis model 1), 741 µM; at Pcs60 K523A mutant (read-out: Kd, melting temperature analysis model 2), 117 µM. Further, on Pcs60 [1] (first transition), the “Tm (melting temperature range of binding study)” value was 37–48 °C. Besides, the “second transition at […] (DSC) upon ligand binding” value on Pcs60 [2] is reported as “not”. Moreover, the “temperature of the first transition (DSC) upon ligand binding” value on Pcs60 [2] (41.5 °C in absence of ligand) stood at 43.4 °C.

On to adenosine diphosphate ribose [ADPR], for which the “Tm (melting temperature range of binding study)” value at SS1 was 50–60 °C; on EG1, 51–56 °C.

The values are drawn from publication PMC8099913, “FoldAffinity: binding affinities from nDSF experiments” (Scientific Reports, 2021).
